In ChEMBL document CHEMBL4507284, “Data for DCP probe BI-1230” (2021):

Experiments:
[1] = test system: Phosphatidylinositol 4,5-bisphosphate 3-kinase catalytic subunit alpha isoform (Homo sapiens), P42336 [H1047Y]; conditions: Compound concentration 1000.0 nM
[2] = biological target: Calcium/calmodulin-dependent protein kinase type II subunit beta (Homo sapiens) (UniProt Q13554); conditions: Compound concentration 1000.0 nM
[3] = biological target: Calcium/calmodulin-dependent protein kinase type 1 (Homo sapiens) (UniProt Q14012); conditions: Compound concentration 1000.0 nM
[4] = biological target: Dual specificity tyrosine-phosphorylation-regulated kinase 1B (Homo sapiens) (UniProt Q9Y463); conditions: Compound concentration 1000.0 nM
[5] = biological target: Serine/threonine-protein kinase Sgk3 (Homo sapiens) (UniProt Q96BR1); conditions: Compound concentration 1000.0 nM
[6] = biological target: Ribosomal protein S6 kinase alpha-1 (Homo sapiens) (UniProt Q15418); conditions: Compound concentration 1000.0 nM
[7] = biological target: Mitogen-activated protein kinase 4 (Homo sapiens) (UniProt P31152); conditions: Compound concentration 1000.0 nM
[8] = test system: Proto-oncogene tyrosine-protein kinase receptor Ret (Homo sapiens), P07949 [V804L]; conditions: Compound concentration 1000.0 nM
[9] = biological target: Serine/threonine-protein kinase STK11 (Homo sapiens) (UniProt Q15831); conditions: Compound concentration 1000.0 nM
[10] = test system: Receptor-type tyrosine-protein kinase FLT3 (Homo sapiens), P36888 [R834Q]; conditions: Compound concentration 1000.0 nM
[11] = biological target: Serine/threonine-protein kinase 17B (Homo sapiens) (UniProt O94768); conditions: Compound concentration 1000.0 nM
[12] = test system: Tyrosine-protein kinase ABL1 (Homo sapiens), P00519 [T315I]; conditions: Compound concentration 1000.0 nM
[13] = test system: Fibroblast growth factor receptor 3 (Homo sapiens), P22607 [G697C]; conditions: Compound concentration 1000.0 nM
[14] = biological target: NT-3 growth factor receptor (Homo sapiens) (UniProt Q16288); conditions: Compound concentration 1000.0 nM
[15] = biological target: Tyrosine-protein kinase FRK (Homo sapiens) (UniProt P42685); conditions: Compound concentration 1000.0 nM
[16] = biological target: Wee1-like protein kinase 2 (Homo sapiens) (UniProt P0C1S8); conditions: Compound concentration 1000.0 nM
[17] = biological target: SRSF protein kinase 2 (Homo sapiens) (UniProt P78362); conditions: Compound concentration 1000.0 nM
[18] = biological target: Serine/threonine-protein kinase LATS1 (Homo sapiens) (UniProt O95835); conditions: Compound concentration 1000.0 nM
[19] = biological target: Dual serine/threonine and tyrosine protein kinase (Homo sapiens) (UniProt Q6XUX3); conditions: Compound concentration 1000.0 nM
[20] = biological target: MAP/microtubule affinity-regulating kinase 4 (Homo sapiens) (UniProt Q96L34); conditions: Compound concentration 1000.0 nM
[21] = biological target: High affinity nerve growth factor receptor (Homo sapiens) (UniProt P04629); conditions: Compound concentration 1000.0 nM
[22] = biological target: Serine/threonine-protein kinase D2 (Homo sapiens) (UniProt Q9BZL6); conditions: Compound concentration 1000.0 nM
[23] = biological target: Serine/threonine-protein kinase MRCK alpha (Homo sapiens) (UniProt Q5VT25); conditions: Compound concentration 1000.0 nM
[24] = biological target: Death-associated protein kinase 2 (Homo sapiens) (UniProt Q9UIK4); conditions: Compound concentration 1000.0 nM
[25] = test system: Tyrosine-protein kinase ABL1 (Homo sapiens), P00519 [F317L]; conditions: Compound concentration 1000.0 nM
[26] = biological target: cAMP-dependent protein kinase catalytic subunit beta (Homo sapiens) (UniProt P22694); conditions: Compound concentration 1000.0 nM
[27] = biological target: Ribosomal protein S6 kinase alpha-4 (Homo sapiens) (UniProt O75676); conditions: Compound concentration 1000.0 nM
[28] = biological target: Tyrosine-protein kinase ABL1 (Homo sapiens) (UniProt P00519); conditions: Compound concentration 1000.0 nM
[29] = biological target: Tyrosine-protein kinase Lck (Homo sapiens) (UniProt P06239); conditions: Compound concentration 1000.0 nM
[30] = biological target: Phosphatidylinositol 5-phosphate 4-kinase type-2 gamma (Homo sapiens) (UniProt Q8TBX8); conditions: Compound concentration 1000.0 nM
[31] = biological target: Mitogen-activated protein kinase kinase kinase 19 (Homo sapiens) (UniProt Q56UN5); conditions: Compound concentration 1000.0 nM
[32] = biological target: Cyclin-dependent kinase 11A (Homo sapiens) (UniProt Q9UQ88); conditions: Compound concentration 1000.0 nM
[33] = biological target: Vascular endothelial growth factor receptor 2 (Homo sapiens) (UniProt P35968); conditions: Compound concentration 1000.0 nM
[34] = biological target: Serine/threonine-protein kinase LATS2 (Homo sapiens) (UniProt Q9NRM7); conditions: Compound concentration 1000.0 nM
[35] = biological target: Ephrin type-B receptor 4 (Homo sapiens) (UniProt P54760); conditions: Compound concentration 1000.0 nM
[36] = biological target: Protein-tyrosine kinase 6 (Homo sapiens) (UniProt Q13882); conditions: Compound concentration 1000.0 nM
[37] = biological target: Serine/threonine-protein kinase Nek2 (Homo sapiens) (UniProt P51955); conditions: Compound concentration 1000.0 nM
[38] = test system: Phosphatidylinositol 4,5-bisphosphate 3-kinase catalytic subunit alpha isoform (Homo sapiens), P42336 [Q546K]; conditions: Compound concentration 1000.0 nM
[39] = biological target: Inhibitor of nuclear factor kappa-B kinase subunit epsilon (Homo sapiens) (UniProt Q14164); conditions: Compound concentration 1000.0 nM
[40] = biological target: Fibroblast growth factor receptor 2 (Homo sapiens) (UniProt P21802); conditions: Compound concentration 1000.0 nM
[41] = biological target: Mitogen-activated protein kinase 6 (Homo sapiens) (UniProt Q16659); conditions: Compound concentration 1000.0 nM
[42] = biological target: 5-hydroxytryptamine receptor 2A (Homo sapiens) (UniProt P28223); conditions: Compound concentration 10.0 uM
[43] = biological target: Mitogen-activated protein kinase 9 (Homo sapiens) (UniProt P45984); conditions: Compound concentration 1000.0 nM
[44] = biological target: Phosphatidylinositol 4,5-bisphosphate 3-kinase catalytic subunit gamma isoform (Homo sapiens) (UniProt P48736); conditions: Compound concentration 1000.0 nM
[45] = biological target: Mitogen-activated protein kinase kinase kinase 10 (Homo sapiens) (UniProt Q02779); conditions: Compound concentration 1000.0 nM

Chain of Ribosomal protein S6 kinase alpha-1 (Homo sapiens) (Q15418 whole entry): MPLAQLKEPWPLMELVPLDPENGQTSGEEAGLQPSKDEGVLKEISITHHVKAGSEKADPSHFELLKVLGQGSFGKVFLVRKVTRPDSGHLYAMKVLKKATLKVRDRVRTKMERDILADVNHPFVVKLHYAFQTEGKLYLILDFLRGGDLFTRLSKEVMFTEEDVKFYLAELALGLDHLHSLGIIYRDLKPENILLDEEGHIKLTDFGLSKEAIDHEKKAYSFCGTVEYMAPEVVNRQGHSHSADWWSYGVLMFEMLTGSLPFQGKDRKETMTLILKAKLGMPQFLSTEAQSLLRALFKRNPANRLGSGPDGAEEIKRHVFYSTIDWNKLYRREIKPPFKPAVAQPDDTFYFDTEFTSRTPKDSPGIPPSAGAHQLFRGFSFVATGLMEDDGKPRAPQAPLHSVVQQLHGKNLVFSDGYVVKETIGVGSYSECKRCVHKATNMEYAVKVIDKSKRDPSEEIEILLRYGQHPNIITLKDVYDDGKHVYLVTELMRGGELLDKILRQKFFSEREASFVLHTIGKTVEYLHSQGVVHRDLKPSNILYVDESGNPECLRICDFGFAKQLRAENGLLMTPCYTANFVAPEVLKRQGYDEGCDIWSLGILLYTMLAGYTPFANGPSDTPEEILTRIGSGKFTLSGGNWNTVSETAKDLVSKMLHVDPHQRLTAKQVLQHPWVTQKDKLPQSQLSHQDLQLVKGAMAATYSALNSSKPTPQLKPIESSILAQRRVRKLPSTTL
Chain of Phosphatidylinositol 4,5-bisphosphate 3-kinase catalytic subunit alpha isoform (Homo sapiens), P42336 [Q546K] (P42336 whole entry Q546K, canonical isoform): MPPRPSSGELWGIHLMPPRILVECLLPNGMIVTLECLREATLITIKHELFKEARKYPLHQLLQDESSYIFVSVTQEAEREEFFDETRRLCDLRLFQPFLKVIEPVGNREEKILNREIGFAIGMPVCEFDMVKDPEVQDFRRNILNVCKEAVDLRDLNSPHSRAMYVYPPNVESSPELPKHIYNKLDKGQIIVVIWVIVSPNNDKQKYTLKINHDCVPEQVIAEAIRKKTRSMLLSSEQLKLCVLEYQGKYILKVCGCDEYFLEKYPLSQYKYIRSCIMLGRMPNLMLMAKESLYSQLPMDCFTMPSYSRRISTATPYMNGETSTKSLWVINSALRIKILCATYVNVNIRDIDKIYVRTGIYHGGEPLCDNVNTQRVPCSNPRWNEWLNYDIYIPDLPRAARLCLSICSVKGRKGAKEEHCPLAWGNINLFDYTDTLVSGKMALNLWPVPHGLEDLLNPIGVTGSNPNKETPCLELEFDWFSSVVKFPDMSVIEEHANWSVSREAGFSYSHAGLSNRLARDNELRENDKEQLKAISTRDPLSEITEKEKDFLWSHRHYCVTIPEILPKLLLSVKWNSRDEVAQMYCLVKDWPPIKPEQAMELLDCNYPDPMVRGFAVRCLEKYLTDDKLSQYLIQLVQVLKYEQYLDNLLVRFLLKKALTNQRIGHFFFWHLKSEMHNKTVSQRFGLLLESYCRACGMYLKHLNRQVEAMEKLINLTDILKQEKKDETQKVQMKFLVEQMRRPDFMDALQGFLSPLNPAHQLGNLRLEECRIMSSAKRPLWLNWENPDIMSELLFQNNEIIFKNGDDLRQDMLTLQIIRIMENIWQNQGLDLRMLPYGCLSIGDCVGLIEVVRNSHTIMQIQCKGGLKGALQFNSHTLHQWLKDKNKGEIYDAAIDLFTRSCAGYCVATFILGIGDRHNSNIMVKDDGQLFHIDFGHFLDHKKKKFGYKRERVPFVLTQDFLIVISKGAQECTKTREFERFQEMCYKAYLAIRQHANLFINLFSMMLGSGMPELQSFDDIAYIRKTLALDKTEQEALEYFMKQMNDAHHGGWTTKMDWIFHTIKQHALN
Chain of Proto-oncogene tyrosine-protein kinase receptor Ret (Homo sapiens), P07949 [V804L] (P07949 whole entry V804L): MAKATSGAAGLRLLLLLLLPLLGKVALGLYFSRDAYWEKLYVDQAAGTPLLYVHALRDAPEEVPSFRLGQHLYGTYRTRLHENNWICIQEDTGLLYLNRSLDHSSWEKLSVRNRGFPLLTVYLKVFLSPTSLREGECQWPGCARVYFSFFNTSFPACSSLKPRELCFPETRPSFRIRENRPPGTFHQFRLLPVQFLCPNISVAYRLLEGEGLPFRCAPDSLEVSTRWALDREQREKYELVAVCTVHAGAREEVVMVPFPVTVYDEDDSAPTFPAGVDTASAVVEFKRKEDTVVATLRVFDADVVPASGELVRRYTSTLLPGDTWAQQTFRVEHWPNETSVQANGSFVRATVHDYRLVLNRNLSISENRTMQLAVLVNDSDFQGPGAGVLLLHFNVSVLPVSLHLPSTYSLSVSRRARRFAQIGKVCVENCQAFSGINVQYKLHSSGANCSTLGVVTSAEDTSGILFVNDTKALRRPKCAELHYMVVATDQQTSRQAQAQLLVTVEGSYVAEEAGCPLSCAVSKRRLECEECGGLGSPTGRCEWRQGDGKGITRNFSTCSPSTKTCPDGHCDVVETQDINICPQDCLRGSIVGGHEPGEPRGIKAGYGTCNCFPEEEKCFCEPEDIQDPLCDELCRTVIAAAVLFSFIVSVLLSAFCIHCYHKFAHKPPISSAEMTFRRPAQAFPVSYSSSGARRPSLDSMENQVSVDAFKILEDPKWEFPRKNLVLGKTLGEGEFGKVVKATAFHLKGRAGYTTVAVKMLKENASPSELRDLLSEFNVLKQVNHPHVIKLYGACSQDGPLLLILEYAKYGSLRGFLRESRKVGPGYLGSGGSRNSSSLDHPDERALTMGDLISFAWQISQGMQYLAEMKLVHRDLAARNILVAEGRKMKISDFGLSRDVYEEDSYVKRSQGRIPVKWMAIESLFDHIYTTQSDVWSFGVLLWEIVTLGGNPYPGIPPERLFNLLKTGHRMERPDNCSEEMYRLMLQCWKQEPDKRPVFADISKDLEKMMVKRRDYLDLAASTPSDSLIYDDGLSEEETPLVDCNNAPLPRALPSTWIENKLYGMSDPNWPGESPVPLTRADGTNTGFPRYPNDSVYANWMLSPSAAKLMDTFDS
Chain of Ephrin type-B receptor 4 (Homo sapiens) (P54760 whole entry): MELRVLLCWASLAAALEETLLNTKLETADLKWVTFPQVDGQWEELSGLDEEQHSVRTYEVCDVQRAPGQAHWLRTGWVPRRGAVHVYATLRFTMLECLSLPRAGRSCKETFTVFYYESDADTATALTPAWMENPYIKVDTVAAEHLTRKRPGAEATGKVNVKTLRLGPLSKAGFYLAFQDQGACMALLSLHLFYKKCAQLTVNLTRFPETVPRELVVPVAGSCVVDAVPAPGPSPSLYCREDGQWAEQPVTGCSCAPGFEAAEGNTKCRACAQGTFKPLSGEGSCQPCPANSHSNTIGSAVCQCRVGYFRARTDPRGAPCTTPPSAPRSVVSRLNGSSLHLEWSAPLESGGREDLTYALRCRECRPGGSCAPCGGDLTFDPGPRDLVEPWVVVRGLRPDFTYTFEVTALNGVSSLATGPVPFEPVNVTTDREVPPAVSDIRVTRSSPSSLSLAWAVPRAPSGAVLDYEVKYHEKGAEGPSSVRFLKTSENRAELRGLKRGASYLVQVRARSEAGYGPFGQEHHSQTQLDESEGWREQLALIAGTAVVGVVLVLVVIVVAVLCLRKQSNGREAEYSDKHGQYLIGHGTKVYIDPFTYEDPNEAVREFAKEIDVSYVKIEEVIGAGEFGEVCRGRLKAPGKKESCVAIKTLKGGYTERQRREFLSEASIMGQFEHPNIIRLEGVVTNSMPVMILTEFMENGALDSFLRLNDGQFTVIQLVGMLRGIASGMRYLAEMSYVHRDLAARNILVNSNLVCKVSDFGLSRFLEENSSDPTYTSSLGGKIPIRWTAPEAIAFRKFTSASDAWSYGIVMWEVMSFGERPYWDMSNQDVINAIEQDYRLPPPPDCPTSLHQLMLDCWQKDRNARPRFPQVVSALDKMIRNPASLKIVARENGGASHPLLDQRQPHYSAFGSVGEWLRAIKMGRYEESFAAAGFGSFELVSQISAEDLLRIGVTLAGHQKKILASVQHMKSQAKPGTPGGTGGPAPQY
Chain of Serine/threonine-protein kinase Nek2 (Homo sapiens) (P51955 whole entry, canonical isoform): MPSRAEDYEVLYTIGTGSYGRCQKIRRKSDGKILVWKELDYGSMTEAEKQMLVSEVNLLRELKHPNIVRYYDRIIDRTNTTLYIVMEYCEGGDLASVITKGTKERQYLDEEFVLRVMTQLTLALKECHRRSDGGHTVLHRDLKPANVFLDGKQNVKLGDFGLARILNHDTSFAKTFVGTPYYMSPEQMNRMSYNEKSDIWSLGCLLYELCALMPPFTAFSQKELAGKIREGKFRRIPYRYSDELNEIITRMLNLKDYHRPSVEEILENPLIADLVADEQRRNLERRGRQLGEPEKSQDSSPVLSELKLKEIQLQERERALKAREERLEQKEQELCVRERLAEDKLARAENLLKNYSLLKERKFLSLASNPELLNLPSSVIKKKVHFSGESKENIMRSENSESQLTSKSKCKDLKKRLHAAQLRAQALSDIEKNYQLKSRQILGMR
Chain of Death-associated protein kinase 2 (Homo sapiens) (Q9UIK4 whole entry, looked up): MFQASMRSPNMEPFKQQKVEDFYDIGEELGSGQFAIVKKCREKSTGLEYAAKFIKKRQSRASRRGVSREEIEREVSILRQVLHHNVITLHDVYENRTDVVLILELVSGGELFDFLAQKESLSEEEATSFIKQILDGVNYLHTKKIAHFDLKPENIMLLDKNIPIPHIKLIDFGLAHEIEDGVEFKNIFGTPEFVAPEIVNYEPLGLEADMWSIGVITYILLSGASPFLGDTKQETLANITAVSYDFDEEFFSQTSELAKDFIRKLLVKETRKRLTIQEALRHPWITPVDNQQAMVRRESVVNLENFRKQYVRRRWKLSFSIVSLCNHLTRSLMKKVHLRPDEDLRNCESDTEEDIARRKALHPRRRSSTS
Chain of Phosphatidylinositol 4,5-bisphosphate 3-kinase catalytic subunit alpha isoform (Homo sapiens), P42336 [H1047Y] (P42336 whole entry H1047Y, canonical isoform): as the sequence (P42336 whole entry Q546K, canonical isoform) above, with K546Q, H1047Y counted along it

COc1ccc2c(O[C@@H]3C[C@H]4C(=O)N[C@]5(C(=O)O)CC5/C=C\CCCCC[C@H](NC(=O)OC5CCCC5)C(=O)N4C3)cc(-c3csc(NC(=O)C(C)C)n3)nc2c1C (stereo not given in full) [BI 1230]
inactive: residual activity [1] 100% | residual activity [2] 100% | residual activity [3] 100% | residual activity [4] 74% | residual activity [5] 75% | residual activity [6] 100% | residual activity [7] 93% | residual activity [8] 95% | residual activity [9] 100% | residual activity [10] 92% | residual activity [11] 88% | residual activity [12] 87% | residual activity [13] 88% | residual activity [14] 97% | residual activity [15] 100% | residual activity [16] 100% | residual activity [17] 100% | residual activity [18] 100% | residual activity [19] 68% | residual activity [20] 99% | residual activity [21] 82% | residual activity [22] 95% | residual activity [23] 100% | residual activity [24] 100% | residual activity [25] 99% | residual activity [26] 100% | residual activity [27] 96% | residual activity [28] 74% | residual activity [29] 100% | residual activity [30] 89% | residual activity [31] 70% | residual activity [32] 99% | residual activity [33] 83% | residual activity [34] 98% | residual activity [35] 100% | residual activity [36] 97% | residual activity [37] 94% | residual activity [38] 70% | residual activity [39] 82% | residual activity [40] 96% | residual activity [41] 93% | inhibition [42] 11.4% | residual activity [43] 71% | residual activity [44] 65% | residual activity [45] 93%

O=C(N[C@H]1CCCCC/C=C\C2C[C@@]2(C(=O)O)NC(=O)[C@@H]2C[C@@H](Oc3ccncc3)CN2C1=O)OC1CCCC1 (stereo not given in full) [BI 1675]
inactive: residual activity [1] 100% | residual activity [2] 99% | residual activity [3] 87% | residual activity [5] 100% | residual activity [6] 82% | residual activity [7] 100% | residual activity [8] 86% | residual activity [9] 85% | residual activity [10] 93% | residual activity [11] 69% | residual activity [12] 84% | residual activity [13] 100% | residual activity [14] 100% | residual activity [15] 100% | residual activity [16] 100% | residual activity [17] 64% | residual activity [18] 99% | residual activity [19] 100% | residual activity [20] 100% | residual activity [21] 100% | residual activity [22] 100% | residual activity [23] 87% | residual activity [24] 100% | residual activity [25] 100% | residual activity [26] 100% | residual activity [27] 100% | residual activity [28] 85% | residual activity [29] 100% | residual activity [30] 100% | residual activity [31] 93% | residual activity [32] 88% | residual activity [33] 100% | residual activity [34] 100% | residual activity [35] 100% | residual activity [36] 100% | residual activity [37] 94% | residual activity [38] 98% | residual activity [39] 100% | residual activity [40] 79% | residual activity [41] 92% | inhibition [42] -7.7% | residual activity [43] 94% | residual activity [44] 78% | residual activity [45] 100%
active: residual activity [4] 46%
